The record followed here is article PMC3513391 (Biochemistry, 2012).

Experiment [1] concerns the target T1, Homoprotocatechuate 2,3-dioxygenase (FeHPCD), Y257F variant (Brevibacterium fuscum, UniProt Q45135, Y257F). Description: UV-vis spectral change on anaerobic binding.
Experiment [2] concerns the target T1, Homoprotocatechuate 2,3-dioxygenase (FeHPCD), Y257F variant. Description: competition with 4NC by UV-vis. The class given is binding.
Experiment [3] concerns the target Homoprotocatechuate 2,3-dioxygenase (FeHPCD) (Brevibacterium fuscum, UniProt Q45135). Kind of experiment: competition with 4NC by UV-vis. The class given is binding.

With `O=[N+]([O-])c1ccc(O)c(O)c1` [4NC, 4-nitrocatechol], in experiment [1], the Kd is roughly 5 µM.
As to `O=C(O)Cc1ccc(O)c(O)c1` [HPCA, homoprotocatechuate], the Kd in experiment [2] and in experiment [3] was less than 5 µM in each case.
